According to patent US8735406B2, “8-oxodihydropurine derivative” (Dainippon Sumitomo Pharma Co., Ltd., priority 2009, dated 2014):
Read-outs that look alike come from different tables or passages of the source.

Target: T1, FAAH (Rattus norvegicus, UniProt P97612)
T1 construct: Preparation of Rat Brain Membranes Preparations (FAAH Enzyme Solution); from tissue; host or cells: rat cerebrum (brain membrane preparation)
T1 sequence (P97612 1-579): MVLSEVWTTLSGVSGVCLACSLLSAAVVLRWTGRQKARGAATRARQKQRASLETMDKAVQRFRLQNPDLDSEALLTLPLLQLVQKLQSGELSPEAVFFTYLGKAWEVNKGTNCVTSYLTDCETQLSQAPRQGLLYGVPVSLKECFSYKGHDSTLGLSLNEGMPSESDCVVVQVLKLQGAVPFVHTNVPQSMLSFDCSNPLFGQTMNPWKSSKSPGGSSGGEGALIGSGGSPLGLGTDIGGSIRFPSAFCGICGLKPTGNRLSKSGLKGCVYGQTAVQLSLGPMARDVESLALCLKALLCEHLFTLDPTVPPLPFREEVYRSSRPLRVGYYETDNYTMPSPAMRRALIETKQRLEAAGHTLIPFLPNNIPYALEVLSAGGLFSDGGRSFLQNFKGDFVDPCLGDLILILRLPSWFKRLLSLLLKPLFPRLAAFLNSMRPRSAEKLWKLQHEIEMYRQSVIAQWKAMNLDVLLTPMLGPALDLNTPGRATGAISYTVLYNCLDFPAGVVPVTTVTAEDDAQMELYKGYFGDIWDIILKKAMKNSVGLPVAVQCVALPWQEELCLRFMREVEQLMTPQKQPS
Assay: Determination of FAAH inhibitory activity in rat (rat brain membrane preparations, [3H]-anandamide hydrolysis)
Format: biochemical
Details: for inhibition at 0.1 µM: read-out: FAAH Inhibition, Inhibition Rate at 100 nM; for IC50: test substance 0.1 nM to 1 μM
How it was run: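 Rat cerebrum membranes (100 μg/mL protein) preincubated 10 min at 37 °C with compound (1% DMSO) in pH 7.6 Tris buffer with 1.5% BSA. Substrate 2 nM [3H]-anandamide plus 2 μM anandamide added for 10 min at 37 °C. [3H]-ethanolamine in the aqueous phase after chloroform/methanol extraction was scintillation counted; IC50 over 0.1 nM–1 μM.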

[1] = rat brain membrane preparations, 100 nM test substance
[2] = rat brain membrane preparations, read-out: FAAH Inhibition IC50

inhibition at 0.1 µM [1] | IC50 [2] | Compound | IC50 (FAAH Inhibition IC50, rat brain membrane preparations) | inhibition at 0.1 µM
80% | 32 nM | Cn1c(=O)n(C(=O)N2CCC2)c2cnc(Cc3cccc(F)c3)nc21 [compound 372] | – | –
90% | 17 nM | Cn1c(=O)n(C(=O)N2CCC2)c2cnc(Cc3ccc(F)cc3)nc21 [compound 373] | – | –
85% | 12 nM | Cn1c(=O)n(C(=O)N2CCC2)c2cnc(Cc3ccccc3F)nc21 [compound 374] | – | –
89% | 24 nM | COc1ccc(Cc2ncc3c(n2)n(C)c(=O)n3C(=O)N2CCC2)cc1 [compound 376] | – | –
82% | 39 nM | Cn1c(=O)n(C(=O)N2CCC2)c2cnc(Cc3ccccc3Cl)nc21 [compound 377] | – | –
80% | 31 nM | Cn1c(=O)n(C(=O)N2CCC2)c2cnc(Cc3ccc(Cl)cc3)nc21 [compound 378] | – | –
105% | 9 nM | COCCc1ncc2c(n1)n(C)c(=O)n2C(=O)N1CC(c2ccccc2)C1 [compound 389] | – | –
120% | 1 nM | COCCc1ncc2c(n1)n(C)c(=O)n2C(=O)N1CC(c2ccc(F)cc2)C1 [compound 390] | – | –
105% | 4 nM | COCCc1ncc2c(n1)n(C)c(=O)n2C(=O)N1CC(c2cccc(F)c2)C1 [compound 391] | – | –
105% | 11 nM | CCOc1ccc(C2CN(C(=O)n3c(=O)n(C)c4nc(CCOC)ncc43)C2)cc1 [compound 392] | – | –
101% | 10 nM | COCCc1ncc2c(n1)n(C)c(=O)n2C(=O)N1CC(c2cccc(C(F)(F)F)c2)C1 [compound 393] | – | –
93% | 20 nM | Cn1c(=O)n(C(=O)N2CCC2)c2cnc(COc3ccccc3)nc21 [compound 403] | – | –
– | – | Cn1c(=O)n(C(=O)N2CCC2)c2cnc(COc3cccc(F)c3)nc21 [compound 405] | 98 nM | 97%
54% | 100 nM | Cn1c(=O)n(C(=O)N2CCC2)c2cnc(COc3ccc(Cl)cc3)nc21 [compound 406] | – | –
70% | 92 nM | Cn1c(=O)n(C(=O)N2CCC2)c2cnc(COc3cccc(Cl)c3)nc21 [compound 407] | – | –
69% | 99 nM | Cn1c(=O)n(C(=O)N2CCC2)c2cnc(COc3ccccc3F)nc21 [compound 408] | – | –
63% | 96 nM | Cn1c(=O)n(C(=O)N2CCC2)c2cnc(COc3ccccc3Cl)nc21 [compound 409] | – | –
55% | 100 nM | Cn1c(=O)n(C(=O)N2CCC2)c2cnc(COc3cccc(C(F)(F)F)c3)nc21 [compound 410] | – | –
45% | 171 nM | Cc1cccc(OCc2ncc3c(n2)n(C)c(=O)n3C(=O)N2CCC2)c1 [compound 411] | – | –
56% | 78 nM | Cn1c(=O)n(C(=O)N2CCC2)c2cnc(COc3cccc(OC(F)(F)F)c3)nc21 [compound 412] | – | –
54% | 74 nM | COCc1ncc2c(n1)n(C)c(=O)n2C(=O)N1CC(c2ccccc2C)C1 [compound 442] | – | –
69% | 62 nM | COCc1ncc2c(n1)n(C)c(=O)n2C(=O)N1CC(c2cccc(C)c2)C1 [compound 444] | – | –
105% | 10 nM | CCOc1ccc(C2CN(C(=O)n3c(=O)n(C)c4nc(COC)ncc43)C2)cc1 [compound 445] | – | –
101% | 6 nM | COCc1ncc2c(n1)n(C)c(=O)n2C(=O)N1CC(c2ccc(Cl)cc2)C1 [compound 446] | – | –
131% | 1 nM | COCc1ncc2c(n1)n(C)c(=O)n2C(=O)N1CC(c2cccc(Cl)c2)C1 [compound 447] | – | –

inhibition at 0.1 µM [1] | IC50 [2] | Compound | IC50 (FAAH Inhibition IC50, rat brain membrane preparations) | inhibition at 0.1 µM
95% | 10 nM | COCc1ncc2c(n1)n(C)c(=O)n2C(=O)N1CC(c2ccc(C(F)(F)F)cc2)C1 [compound 448] | – | –
84% | 28 nM | COCc1ncc2c(n1)n(C)c(=O)n2C(=O)N1CC(c2cccc(OC(F)(F)F)c2)C1 [compound 449] | – | –
89% | 20 nM | COCc1ncc2c(n1)n(C)c(=O)n2C(=O)N1CC(c2ccc(OC)cc2)C1 [compound 450] | – | –
95% | 12 nM | CCOc1cccc(C2CN(C(=O)n3c(=O)n(C)c4nc(COC)ncc43)C2)c1 [compound 451] | – | –
74% | 39 nM | COCc1ncc2c(n1)n(C)c(=O)n2C(=O)N1CC(c2ccc(C)cc2)C1 [compound 452] | – | –
96% | 10 nM | COCc1ncc2c(n1)n(C)c(=O)n2C(=O)N1CC(c2ccccc2OC)C1 [compound 457] | – | –
107% | 10 nM | CCOCc1ncc2c(n1)n(C)c(=O)n2C(=O)N1CC(c2ccc(F)cc2)C1 [compound 461] | – | –
69% | 52 nM | CCCOCc1ncc2c(n1)n(C)c(=O)n2C(=O)N1CC(c2ccccc2)C1 [compound 467] | – | –
103% | 2 nM | CCCOCc1ncc2c(n1)n(C)c(=O)n2C(=O)N1CC(c2ccc(F)cc2)C1 [compound 470] | – | –
113% | 8 nM | COCCOCc1ncc2c(n1)n(C)c(=O)n2C(=O)N1CC(c2cccc(F)c2)C1 [compound 473] | – | –
100% | 10 nM | CN(C)C(=O)n1c(=O)n(C)c2cnc(CCc3cccc(OC(F)(F)F)c3)nc21 [compound 495] | – | –
86% | 15 nM | CN(C)C(=O)n1c(=O)n(C)c2cnc(CCc3ccc(F)c(F)c3)nc21 [compound 496] | – | –
93% | 24 nM | Cc1cccc(CCc2ncc3c(n2)n(C(=O)N(C)C)c(=O)n3C)c1 [compound 498] | – | –
91% | 28 nM | CN(C)C(=O)n1c(=O)n(C)c2cnc(CCc3ccccc3F)nc21 [compound 499] | – | –
104% | 10 nM | CCCc1ccc(CCc2ncc3c(n2)n(C(=O)N(C)C)c(=O)n3C)cc1 [compound 500] | – | –
103% | 10 nM | CCCOc1ccc(CCc2ncc3c(n2)n(C(=O)N(C)C)c(=O)n3C)cc1 [compound 501] | – | –
104% | 10 nM | CC(C)c1ccc(CCc2ncc3c(n2)n(C(=O)N(C)C)c(=O)n3C)cc1 [compound 502] | – | –
101% | 10 nM | CCc1ccc(CCc2ncc3c(n2)n(C(=O)N(C)C)c(=O)n3C)cc1 [compound 503] | – | –
100% | 6 nM | CN(C)C(=O)n1c(=O)n(C)c2cnc(CCc3cc(F)c(F)c(F)c3)nc21 [compound 504] | – | –
95% | 24 nM | Cc1ccc(C)c(CCc2ncc3c(n2)n(C(=O)N(C)C)c(=O)n3C)c1 [compound 507] | – | –
100% | 5 nM | CCCCc1ccc(CCc2ncc3c(n2)n(C(=O)N(C)C)c(=O)n3C)cc1 [compound 508] | – | –
99% | 10 nM | Cc1cc(CCc2ncc3c(n2)n(C(=O)N(C)C)c(=O)n3C)ccc1F [compound 509] | – | –
102% | 11 nM | Cc1ccc(CCc2ncc3c(n2)n(C(=O)N(C)C)c(=O)n3C)cc1C [compound 510] | – | –
95% | 13 nM | Cc1cc(C)c(CCc2ncc3c(n2)n(C(=O)N(C)C)c(=O)n3C)c(C)c1 [compound 511] | – | –
